Values quoted from earlier work as cited in PubChem BioAssay AID1259409 (Chemical Carcinogenesis Research Information System (CCRIS), 2018).

Tested on: rodent chemically induced tumor inhibition, incidence and multiplicity
Test: CCRIS tumor inhibitor studies
Conditions: Carcinogen: DIETHYLNITROSAMINE, 55-18-5, Dose [Inhibitor]: 0, Route [Inhibitor]: ORAL, Species: RAT, Strain/Sex: BD6/FEMALE, Promoter: NONE USED

O=C1O[C@H]([C@@H](O)CO)C(O)=C1O
tumour outcome (control, treated, inhibition, significance) (3 G/L IN DRINKING WATER BEGINNING 1 D PRIOR TO FIRST CARCINOGEN DOSE AND CONTINUING TO 2 D POST LAST CARCINOGEN DOSE, Target Tissue: Type of Lesion: LIVER: TUMOR, Dose [Carcinogen]: 80 MG/KG BW 1/WK FOR 8 WK): 94%, 90%, 4%, not significant | tumour outcome (control, treated, inhibition, significance) (3 G/L IN DRINKING WATER FOR DURATION OF STUDY BEGINNING 1 D PRIOR TO FIRST CARCINOGEN DOSE (STUDY DURATION: 6 MO), Target Tissue: Type of Lesion: ESOPHAGUS: TUMOR, Dose [Carcinogen]: 80 MG/KG BW 1/WK FOR 6 WK): 14%, 0%, 100%, not significant | tumour outcome (control, treated, inhibition, significance) (3 G/L IN DRINKING WATER FOR DURATION OF STUDY BEGINNING 1 D PRIOR TO FIRST CARCINOGEN DOSE (STUDY DURATION: 6 MO), Target Tissue: Type of Lesion: ESOPHAGUS: TUMOR, Dose [Carcinogen]: 80 MG/KG BW 1/WK FOR 10 WK): 35%, 19%, 46%, not significant | tumour outcome (control, treated, inhibition, significance) (3 G/L IN DRINKING WATER FOR DURATION OF STUDY BEGINNING 1 D PRIOR TO FIRST CARCINOGEN DOSE (STUDY DURATION: 6 MO), Target Tissue: Type of Lesion: LIVER: TUMOR, Dose [Carcinogen]: 80 MG/KG BW 1/WK FOR 6 WK): 52%, 25%, 52%, not significant | tumour outcome (control, treated, inhibition, significance) (3 G/L IN DRINKING WATER FOR DURATION OF STUDY BEGINNING 1 D PRIOR TO FIRST CARCINOGEN DOSE (STUDY DURATION: 6 MO), Target Tissue: Type of Lesion: LIVER: TUMOR, Dose [Carcinogen]: 80 MG/KG BW 1/WK FOR 10 WK): 100%, 96%, 4%, not significant | tumour outcome (control, treated, inhibition, significance) (3 G/L IN DRINKING WATER FOR DURATION OF STUDY BEGINNING 2 D POST CARCINOGEN TREATMENT (STUDY DURATION: 6 MO), Target Tissue: Type of Lesion: ESOPHAGUS: TUMOR, Dose [Carcinogen]: 80 MG/KG BW 1/WK FOR 10 WK): 35%, 10%, 71%, not significant | tumour outcome (control, treated, inhibition, significance) (10 G/L IN DRINKING WATER BEGINNING 1 D PRIOR TO FIRST CARCINOGEN DOSE AND CONTINUING TO 2 D POST LAST CARCINOGEN DOSE, Target Tissue: Type of Lesion: ESOPHAGUS: TUMOR, Dose [Carcinogen]: 80 MG/KG BW 1/WK FOR 8 WK): 31%, 32%, -3%, not significant | tumour outcome (control, treated, inhibition, significance) (10 G/L IN DRINKING WATER BEGINNING 1 D PRIOR TO FIRST CARCINOGEN DOSE AND CONTINUING TO 2 D POST LAST CARCINOGEN DOSE, Target Tissue: Type of Lesion: LIVER: TUMOR, Dose [Carcinogen]: 80 MG/KG BW 1/WK FOR 8 WK): 94%, 95%, -1%, not significant | tumour outcome (control, treated, inhibition, significance) (10 G/L IN DRINKING WATER FOR DURATION OF STUDY BEGINNING 1 D PRIOR TO FIRST CARCINOGEN DOSE (STUDY DURATION: 6 MO), Target Tissue: Type of Lesion: ESOPHAGUS: TUMOR, Dose [Carcinogen]: 80 MG/KG BW 1/WK FOR 10 WK): 35%, 28%, 20%, not significant | tumour outcome (control, treated, inhibition, significance) (10 G/L IN DRINKING WATER FOR DURATION OF STUDY BEGINNING 1 D PRIOR TO FIRST CARCINOGEN DOSE (STUDY DURATION: 6 MO), Target Tissue: Type of Lesion: LIVER: TUMOR, Dose [Carcinogen]: 80 MG/KG BW 1/WK FOR 10 WK): 100%, 88%, 12%, not significant | tumour outcome (control, treated, inhibition, significance) (10 G/L IN DRINKING WATER FOR DURATION OF STUDY BEGINNING 2 D POST CARCINOGEN TREATMENT (STUDY DURATION: 6 MO), Target Tissue: Type of Lesion: ESOPHAGUS: TUMOR, Dose [Carcinogen]: 80 MG/KG BW 1/WK FOR 10 WK): 35%, 33%, 6%, not significant | tumour outcome (control, treated, inhibition, significance) (10 G/L IN DRINKING WATER FOR DURATION OF STUDY BEGINNING 2 D POST CARCINOGEN TREATMENT (STUDY DURATION: 6 MO), Target Tissue: Type of Lesion: LIVER: TUMOR, Dose [Carcinogen]: 80 MG/KG BW 1/WK FOR 10 WK): 100%, 100%, 0%, not significant | tumour outcome (control, treated, inhibition, significance) (15 G/L IN DRINKING WATER BEGINNING 1 D PRIOR TO FIRST CARCINOGEN DOSE AND CONTINUING TO 2 D POST LAST CARCINOGEN DOSE, Target Tissue: Type of Lesion: ESOPHAGUS: TUMOR, Dose [Carcinogen]: 80 MG/KG BW 1/WK FOR 8 WK): 31%, 26%, 16%, not significant | tumour outcome (control, treated, inhibition, significance) (15 G/L IN DRINKING WATER BEGINNING 1 D PRIOR TO FIRST CARCINOGEN DOSE AND CONTINUING TO 2 D POST LAST CARCINOGEN DOSE, Target Tissue: Type of Lesion: LIVER: TUMOR, Dose [Carcinogen]: 80 MG/KG BW 1/WK FOR 8 WK): 94%, 90%, 4%, not significant
